Assay type in all cases: cell-based, human
Assay [1] relates to HUVEC normal cells. In words: MTT drug sensitivity (viability) assay, normal cells. To be noted: 24 h; for IC 25 / IC50: MTT; for IC50: Homo sapiens. The method, then: The MTT assay is based on the ability of viable cells to reduce the reagent 3-(4,5-dimethylthiazol-2-yl)-2,5-diphenyltetrazolium bromide to colored formazan compounds [48]. Because the transformation is only possible in viable cells, the amount of blue formazan is proportional to the number of viable cells and thus, a linear dependence exists between cell activity and absorbance. Cells were seeded in triplicate in 96-well plates at a density of 5000 cells/well, incubated at 37 °C for 24 h. […] After the incubation period, 20 μL MTT (5 mg/mL in PBS) was added and further incubated for 4 h. The supernatant was removed, and the formazan product was analyzed spectrophotometrically (570 nm) after dissolution in DMSO. Wells without cells serve as a blank, and their absorbance was subtracted from the other results. Untreated cells were used as control and their viability was assumed as 100%. Results were expressed as mean values of three determinations ± standard deviation (SD). Data are presented as percent of cell viability and compared to untreated [Viability% = (T − B)/(U − B) × 100, {where T = absorbance of treated cells; U = absorbance of untreated cells, B = absorbance of blank}]. Once percent viability was obtained, the drug response curve was generated, and inhibitory concentration (IC50 and IC25) was calculated using GraphPad Prism version 5.01 [49].
SI values of more than 2 were considered as indicative of high selectivity.
The anticancer cytotoxic activity in vitro was evaluated by the MTT assay. […] The most widely used and informative measure of a drug’s efficacy is IC50-the half-maximal inhibitory concentration. IC50 was determined at half of the difference between the maximum (plateau) and minimum absorbance values, by plotting the absorbance value at 570 nm (Y axis) versus the concentration of the compound analysed (X axis). The IC50 values were reported as a mean of three independent experiments ± standard deviation (S.D.).

In assay [2] the test system is P21 (CDKN1A) gene expression in HUVEC. As to the kind of experiment: Real-time PCR of CDKN1A (P21) gene, normal cells. As to conditions: 24 h, reference gene HPRT, 2^-ΔΔCt vs control. An excerpt: (§1) In order to isolate of total RNA from treated or untreated cells was used TRIzol reagent (Invitrogen)-a monophasic solution of phenol and guanidine isothiocyanate. During the isolation phases, the TRIzol reagent maintains RNA integrity, while disrupting cells and dissolving cell components. The addition of chloroform followed by centrifugation ensures the separation phase of the solution into an aqueous phase and an organic phase. RNA remains in the aqueous phase and is recovered by isopropanol precipitation. The RNA pellet washed once with 75% ice-cold ethanol and entrifuged at 10,000× g for 5 min at 4 °C. The […] is redissolved in nuclease-free water and incubating in a 60 °C water bath for 10 min. The concentration of isolated RNA was assessed using a NanoDrop spectrophotometer ([…], Montchanin, DE, USA). RNA purity was determined by A260/A280 ratios (an […] ratio as close as possible to 2 indicates the presence of highly purified RNA). Reverse transcription of messenger RNA molecules was performed using the High-capacity cDNA Reverse Transcription Kit from Applied Biosystems, using non-specific, randomic primers, following the manufacturer's instructions (Table 1). […] The obtained cDNA was stored at 4 °C and further used in the amplification reaction Real-Time PCR (RT-PCR). […] The samples were analyzed using the formula 2^-ΔΔCt.

The subject of assay [3] is P21 (CDKN1A) gene expression in PE/CA-PJ49. As to the kind of experiment: Real-time PCR of CDKN1A (P21) gene, tumor cells. To be noted: 24 h, reference gene HPRT, 2^-ΔΔCt vs control.
Excerpt: as §1

The test system of assay [4] is PE/CA-PJ49 tumor cells. In words: Annexin V-FITC/PI apoptosis flow cytometry, tumor cells. To be noted: 24 h. How it is done: The apoptosis assay was carried out with the Annexin V-FITC kit using the manufacturer’s (BD Pharmingen) protocol. Treated and untreated 1 × 10^6 cells/mL were resuspended in cold binding buffer and staining simultaneously with 5 μL FITC-Annexin V (green fluorescence) and 5 μL propidium iodide (PI) in the dark, at room temperature for 15 min. Then, 400μL of Annexin V binding buffer was added and 10,000 cells/sample were acquired using a BD Canto II flow cytometer. The analysis was performed using DIVA 6.2 software in order to discriminate viable cells (FITC^−PI^−) from necrotic cells […] and early apoptosis (FITC^+PI^−) from late apoptosis.
Apoptosis can be seen as an efficient method of preventing malignant transformation, as it ensures the removal of cells which present with genetic alterations. Deficient apoptosis can promote the development of cancer, both through the accumulation of cells found during division and the blocking of the removal of cells with high malignant potential genetic variations. The factors which determine the cells to follow one of three possible pathways are not yet known – the start of apoptosis after cellular injury, the repair of the lesion or the continuation of the cellular cycle. Many therapeutical agents have anti-tumoral effects generated by their capacity to activate the apoptotic process. […] The flow cytometric analysis was performed using DIVA 6.2 software and allowed to discriminate viable cells (FITC^−PI^− = Q3) from necrotic cells (FITC^−PI^+ = Q1) and early apoptosis (FITC^+PI^− = Q4) from late apoptosis (FITC^+PI^+ = Q2).
In general terms: Flow cytometry measures light scatter and fluorescence of single cells or particles in a stream.

The test system of assay [5] is PE/CA-PJ49 tumor cells. As to the kind of experiment: MTS cell proliferation assay (CellTiter 96), tumor cells. To be noted: 24 h, PE/CA-PJ49 vs HUVEC. The text has this: In order to determine the effect of CRM or RSV on proliferative activity of cisplatin treated cells was used the Promega CellTiter 96® AQueous One Solution Cell Proliferation Assay, a test that is based on the reduction of yellow MTS tetrazolium salt by the viable cells and generation of colored formazan soluble in the culture medium. The product was spectrophotometrically quantified by measuring the absorbance at λ = 490 nm using a Dynex plate reader (DYNEX Technologies-MRS, Chantilly, VA, USA). Results were expressed as mean values of three determinations ± standard deviation (SD). Untreated cells served as control and considered to have a proliferation index (PI = absorbance of treated cells/absorbance of untreated cells) equal to 1.
Background: Tetrazolium dyes change colour on reduction, which living cells bring about.

The IC50 is the concentration that inhibits the measured activity by half. Read a high IC50 as weaker potency in that assay.

Take `COc1cc(/C=C/C(=O)CC(=O)/C=C/c2ccc(O)c(OC)c2)ccc1O` [CRM, Curcumin]: in assay [1], the “IC 25” value was determined as 19.2 ± 2.1 µM and the IC50 worked out at 59.3 ± 6.1 µM. Also, the “n-fold P21 gene expression HUVEC” value in assay [2] (15 μM CRM) amounted to 1.39. In addition, the “n-fold P21 gene expression PE/CA-PJ49” value in assay [3] (15 μM CRM) turned out to be 1.2. Moreover, in assay [4] (15 μM CRM), the “Early Apoptosis = Q4 (%)” value is given as 19.1%, the “Late Apoptosis = Q2 (%)” value is listed as 9.1%, the “Necrosis = Q1 (%)” value came to 6.7% and the “Total Apoptosis = Q2 + Q4 (%)” value came to 28.2%. The viability at 15 µM in assay [4] (Homo sapiens, 15 μM CRM, read-out: Q3 (viable cells, FITC−PI−)) came out at 65.1%. Further, the “proliferative process (IP)” value in assay [5] (15 μM CRM) is reported as “much more intense decrease of the proliferative process”.
Regarding `Oc1ccc(C=Cc2cc(O)cc(O)c2)cc1` [RSV, 3,5,4′-trihydroxystilbene], in assay [1], the “IC 25” value worked out at 40.6 ± 3.3 µM and the concentration for half-maximal inhibition (IC50) turned out to be 110 ± 8.6 µM. In addition, the “cell viability (MTT)” value in assay [1] (RSV 40 μM vs untreated cells) is recorded as “significantly affected”. Also, the “n-fold P21 gene expression HUVEC” value in assay [2] (40 μM RSV) is 0.36. Also, the “n-fold P21 gene expression PE/CA-PJ49” value in assay [3] (40 μM RSV) is 3.1. In assay [4] (40 μM RSV), the “Early Apoptosis = Q4 (%)” value is listed as 17.7%, the “Late Apoptosis = Q2 (%)” value is recorded as 9.5%, the “Necrosis = Q1 (%)” value is 5.4% and the “Total Apoptosis = Q2 + Q4 (%)” value was 27.2%. Also, in assay [4] (Homo sapiens, 40 μM RSV, read-out: Q3 (viable cells, FITC−PI−)), the viability at 40 µM was found to be 67.4%. The “proliferation (index proliferation, IP)” value in assay [5] (40 μM RSV) is listed as “affected the proliferation of tumor cells PE/CA-PJ49 much more than the one of normal cells HUVEC”.

(Values after article PMC7551591, “The Effect of Resveratrol or Curcumin on Head and Neck Cancer Cells Sensitivity to the Cytotoxic Effects of Cisplatin” (Nutrients, 2020).)
